Source: US9157062B2, “Compositions and methods for promoting the generation of PDX1+ pancreatic cells” (President and Fellows of Harvard College, priority 2008, dated 2015)

Tests used:
[1] = tested on: HUES8-derived treated cells grafted under the kidney capsule; assay: Kidney capsule implantation of treated cells in CD1-nude mice; assay type: in vivo, mouse
Experimental: After 4 days treatment with 300 nM ILV or 300 nM ILV+ 50 ng/ml FGF10, the cells were washed with DPBS for 3 times and treated with 1 mg/ml dispase for 5 min at 37° C. Then, the cells were lifted with the help of cell scraper, collected by centrifugation and resuspended in 50 μl DMEM supplemented 1×B27. About 40 μl (˜2×10^6 cells) of cell clumps were implanted into the left kidney of xylazine anesthetized CD1-nude mice. Two mice were prepared for each sample. Twelve weeks later, the left kidneys were dissected and fixed in 4% paraformaldehyde for 4 hours at 4° C. and processed by standard techniques to generate 15 micrometer cryosections for antibody staining. The antibodies were used as the same condition as immunocytochemistry. Fluorescent images were acquired on an inverted Zeiss LSM 510 confocal microscope.
To further assess the developmental competence of chemically-treated cells, the cells were transplanted under the kidney capsule of nude mice, an assay used by others to observe pancreatic differentiation in vivo (Korsgren et al., 1991; Movassat et al., 2002). […] Additionally, all insulin^+ cells express c-peptide. In contrast, no insulin^+ cells were detected in the mice injected with DMSO-treated population. […]

[2] = tested on: protein kinase C (PKC) signaling; details: some cell lines; Heikkila and Akerman, 1989; Hirota et al., 1987; cited from earlier work
HUES8-derived population = assay: Ki67 staining for proliferation of Pdx1+ cells; assay type: cell-based, human; details: 300 nM ILV, 4 days
Experimental: (§1) Cells were fixed with 10% formalin solution (Sigma) for 20 min at room temperature. Immunostaining was carried out with standard protocols. The following primary antibodies were used: goat anti-Pdx1 (1:500; R&D system); rabbit anti-FOXA2 (1:500; Upstate); rabbit anti-HNF6 (1:200; Santa Cruz Biotech); guinea pig anti-insulin (1:1000; Dako); rabbit anti-c-peptide (1:500; Linco); rabbit anti-amylase (1:200, Sigma); goat anti-HNF1β (1:100, Santa Cruz Biotech); and biotinylated DBA (1:400; Vector Lab). Alexa-488-, Alexa-555, and Alexa-647-conjugated donkey antibodies against mouse, rabbit, guinea pig and goat, and Pacific Blue conjugate-streptavidin (Invitrogen) were used at 1:300 dilution.
The results provided above are consistent with (1) ILV promotion of the proliferation or replication of the few pancreatic progenitors present in the starting population and with (2) differentiation induction of definitive endoderm by the compound. To distinguish between these possibilities, a HUES8-derived population was treated with 300 nM ILV for 4 days and analyzed for proliferation by staining with the antibody against Ki67 (marker for proliferating cells).

[3] = tested on: HUES9-derived population (Pdx1+ cells); assay: High throughput screen for compounds increasing Pdx1+ cells; assay type: cell-based, human
Experimental: To generate a starting population, HUES cells were cultured on MEF feeder cells until 80-90% confluent, then treated with 25 ng/ml Wnt3a (R&D systems)+100 ng/ml Activin A (R&D systems) in advanced RPMI (A-RPMI, Invitrogen) supplemented with 1×L-Glu and 1×PS for 1 day, and then 100 ng/ml Activin A in A-RPMI supplemented with 1×L-Glu, 1×PS and 0.2% FBS (Invitrogen). Two days later, the media was changed to 50 ng/ml FGF10 (R&D systems)+0.25 μM KAAD-CYC (Calbiochem) in A-RPMI supplemented with 1×L-Glu, 1×PS and 2% FBS and maintained for additional 2 days. Cells were then transferred to 50 ng/ml FGF10+0.25 μM KAAD-CYC+2 μM RA (Sigma) in DMEM supplemented with 1×L-Glu, 1×PS, 1×B27 (Invitrogen) and cultured for an additional 4 days. ILV was obtained from Axxora, KAAD-CYC, TPB, PMA, BISI, Gö 6983, U0126 and PD98059 were obtained from Calbiochem and RA were obtained from Sigma.
For a high throughput screen, the starting material was hESCs (HUES9 cells) that were induced to pancreatic lineage using a slightly modified version of previously published protocols (D'Amour et al., 2006; Jiang et al., 2007), as described in Example 1. After 9 days of stepwise differentiation, a heterogeneous population of cells was generated containing cells that stained strongly, weakly or not at all with a Pdx1 antibody. Any cell that stained with the Pdx1 staining antibody was counted as Pdx1^+ cells regardless of staining intensity. Together, the Pdx1^+ cells comprises 5.1±1.8% of the total cell number.
To carry out the screen, the cells were trypsinized and plated on 804G-coated 384-well plates at 6000 cells/well using chemically defined media (DMEM supplemented with 2 mM L-Glu, 1×PS, 1×B27). After overnight incubation, compounds were screened by adding them to provide a final concentration of 10 μM, 1 μM and 0.1 μM. Four days later, the cells were stained with Pdx1 antibody and the plates were analyzed with Opera high content screening system (PerkinElmer).
The wells in which the percentage of Pdx1^+ cells is higher than present at day 1 and higher than day 5 treated with DMSO were selected as primary hits. Compounds that increase both the number and percentage of Pdx1^+ cells were picked as primary hits. Eleven compounds produced hits. (FIG. 7, Table I in FIG. 9 and formulas in FIG. 10). These eleven compounds were (−)-Indolactam V (FIG. 1c and Compound I in Table 1) boldine (Compound II), rotenone (Compound III), ethopropazine hydrochloride (Compound IV), cedrelone (Compound V), prieurianin (Compound VI), strophanthidin (Compound VII), trimeprazine tartrate (Compound VIII), terconazole (Compound IX), dimethisoquin hydrochloride (Compound X), harmine hydrochloride (Compound XI).
as §1

## (−)-Indolactam V [ILV]
[1]; after twelve weeks
  teratoma: no evidence for teratoma was detected
[1]; cells treated 4 days, implanted in left kidney of CD1-nude mice, twelve weeks
  endocrine and exocrine markers in grafts: contained cell clusters that expressed endocrine markers, including insulin and c-peptide, and an exocrine marker, amylase
[2]
  PKC signaling: activates
HUES8-derived population
  Pdx1+ cells expressing Ki67: no Pdx1^+ cells expressing Ki67
[3]; HUES9-derived cells, 10 μM, 1 μM and 0.1 μM, four days
  primary hits (increase both the number and percentage of Pdx1+ cells): hits
[3]; HUES9-derived cells, primary screen
  effective concentration: ~1 µM
[3]; HUES9-derived population, 1 μM ILV for 4 days (day 5)
  percentage of Pdx1+ cells: 10.9±0.9%
